Like-named read-outs stand apart in the source and are kept apart here.

For assay [1], the system named is experimentally induced cerebral ischemia. Conditions: cited from earlier work.
Another assay relates to experimental rat model. Conditions: cited from earlier work; for effectiveness against buthionine sulfoximine-induced cataract: comparison of enantiomers and racemate.
The test system of a further assay is rats. As to conditions: oral administration; cited from earlier work.
The next assay concerns Human Jurkat T cells. The assay is described as follows: Increase in intracellular glutathione levels, Jurkat T cells (GSH by HPLC). The assay is classed as cell-based. As to the method:
(§1) Human Jurkat T cells and U937 cells, a human myelomonocyclic cell line, were used for the experiments. Jurkat and U937 cells were cultivated in RPMI 1640 medium (Bio Whittaker, Belgium)—supplemented with 10% heat-inactivated fetal calf serum (FCS; Linaris, Germany), 1% penicillin/streptomycin (Life Technologies, Scotland) and 2 mM L-glutamine (Sigma, Mont.)—under standard conditions (95% humidity, 5% CO2 and 37° C.). After harvesting, the cells were washed 2× with PBS, resuspended in standard medium (RPMI 1640 with 10% FCS, 1% streptomycin/penicillin, without L-glutamine) in a concentration of 2×10^5 cells/ml and transferred into […] culture bottles. The cells were treated with and without addition of 2 mM glutamine and in each case with or without 100 μM α-lipoic acid over a period of 4, 8, 24 or 48 h. After the respective treatment period had elapsed, the cells were harvested and washed 2× with PBS. 2×10^6 cells were resuspended in sulfosalicylic acid (6.5% in distilled water; Marck, Germany) and incubated on ice for 15 min. The supernatant after pelleting of the cells (5 000 g, 10 min) was aspirated off and stored at −20° C. until glutathione was determined by HPLC.

The test system of assay [2] is U937 cells, a human myelomonocyclic cell line. The experiment in a line: Increase in intracellular glutathione levels, U937 cells (GSH by HPLC). The assay is classed as cell-based. The method, then: as §1
The test system of the next assay is mice. As to conditions: oral administration; cited from earlier work.
The test system of a further assay is mice 6-8 weeks old. Conditions: mice on vitamin E-deficient diet; 1.65 g/kg of body weight; cited from earlier work.
A further assay has as its system diabetes patients. As to conditions: daily 600 mg for more than 3 months; cited from earlier work.
In another assay the test system is aged mice. Conditions: cited from earlier work.
[3] abbreviates: 0.05 mM glutamine added to culture medium.
Setting [4] is: 2 mM glutamine added to culture medium.

On to `O=C(O)CCCC[C@@H](S)CCS` (racemic) [dihydrolipoic acid], for which the infarct size result in assay [1] (50 and 100 mg/kg body weight) is on record as “reduction in the infarct size”.
For `O=C(O)CCCCC1CCSS1` (racemic) [racemic mixture], the “effectiveness against buthionine sulfoximine-induced cataract” value (“effectiveness” for short) in the assay on experimental rat model is listed as “effective”.
Consider `O=C(O)CCCC[C@H]1CCSS1` (single isomer, unassigned) [S enantiomer], for which the “effectiveness” value in the assay on experimental rat model was “effective”.
For the compound `O=C(O)CCCC[C@@H]1CCSS1` [(R)-α-lipoic acid, (R)-5-(1,2-dithiolan-3-yl) valeric acid], in the assay with rats, the mitochondrial function entry is recorded as “improvement in mitochondrial function”. Besides, in the assay with experimental rat model, the “effectiveness” value is on record as “effective”.
As for `NC(=O)CCC(N)C(=O)O` (stereo not drawn) [glutamine, 2-aminopentanoic acid 5-amide], the “concentration of reduced glutathione (GSH)” value is on record as “no significant change” in the assay on Human Jurkat T cells (setting [3]), “significant increases” with Human Jurkat T cells (setting [4]), “no significant change” in [2] (setting [3]) and “significant increases” in assay [2] (setting [4]). In addition, in the assay on mice, the “number of lymphocytes in Peyer's patches” value is recorded as “increased number of lymphocytes”.
For `O=C(O)CCCCC1CCSS1` (stereo not drawn) [lipoic acid, 5-(1,2-dithiolan-3-yl)valeric acid], the “cataract induced by buthionine sulfoximine” value in the assay with experimental rat model (rat model, subcutaneous injection 25 mg/kg body weight twice) is “significant reduction”. Further, the “symptoms of vitamin E deficiency phenomena (muscular dystrophy, weight loss)” value in the assay on mice 6-8 weeks old is “prevents the symptoms”. Further, the oxidative stress result in the assay with diabetes patients is reported as “reduction in oxidative stress”. The infarct size entry in assay [1] (iv, 25 mg/kg body weight) is reported as “reduction in the infarct size”. The long-term memory result in the assay with aged mice was “improve the long-term memory”.

Values taken from patent US20040265357A1, “Combination of liponic acid and glutamine in food and pharmaceutical products” (priority 2001, published 2004).
